Data reported in patent US20250154126A1, “CRYSTALLINE FORM OF SULFUR-CONTAINING ISOINDOLINE DERIVATIVE” (JIANGSU HENGRUI PHARMACEUTICALS CO., LTD., priority 2022, published 2025).
Values belong to the molecule of their own block, whether it stands above or below them.

What was measured:
NCI-H929 xenograft tumor = test: Pharmacodynamic test: NCI-H929 xenograft tumor in CB-17 SCID mice; format: in vivo; conditions: for Number of remaining animals/group: 1 mg/kg qd/11 d, oral
Procedure: This experiment was performed to evaluate the inhibition effect of the compound of Example 1 and the control example CC-92480 on the growth of human multiple myeloma cell NCI-H929 xenograft tumor in CB-17 SCID mice.
Solutions of the compound of Example 1 and the control example CC-92480 were prepared with 5% DMSO+20% PEG400+70% (10% TPGS)+5% (1% HPMC K100LV).
Thirty CB-17 SCID female mice, purchased from Beijing Vital River Laboratory Animal Technology Co., Ltd. (certificate No. 20170011006049, SCXK (Shanghai) 2017-0011), weighing about 19 g at the time of purchase, were bred at 5 mice/cage (in a 12/12 hour light/dark cycle, at a constant temperature of 23±1° C. and humidity of 50%-60%) and had free access to food and water.
After adaptive feeding, the CB-17 SCID mice were grouped as follows:
NCI-H929 cells in a logarithmic growth phase were inoculated subcutaneously into the right flank of 30 female CB-17 SCID mice at 5×10^6 cells/mouse/100 μL (containing […] of Matrigel). After 10 days, when the tumor volume of the tumor-bearing mice reached about 200 mm^3, the mice were randomly divided into 3 groups according to the tumor volume and body weight: vehicle control group, CC-92480-1 mpk, compound of Example 1-1 mpk, with […]. The day of grouping was set as Day 0 (DO), and intragastric administration was performed once a day for 11 days (Table 2). For the tumor-bearing mice, the tumor volume was measured with a vernier caliper and the body weight was measured with a balance twice a week, and the data were recorded.
The tumor volume (V) was calculated as follows: V=1/2×a×b^2, where a and b represent length and width, respectively.
The relative tumor proliferation rate T/C (%)=(T−T0)/(C−C0)×100(%), where T and C are the tumor volume of animals at the end of the experiment in the treatment group and control group, respectively; T0 and C0 are the tumor volume of animals at the beginning of the experiment in the treatment group and control group, respectively. […]

[1] = Long-term/accelerated stability of crystal forms (25° C. 60% RH and 40° C. 75% RH); format: physicochemical; conditions: for physical and chemical stability, long-term accelerated conditions: 25° C. 60% RH and 40° C. 75% RH, six months
Procedure: The crystal forms D, E, Q, and U of the compound of formula (I) were respectively placed under conditions of 25° C. with 60% RH and 40° C. with 75% RH to evaluate their stability.

[2] = Hygroscopicity study of crystal forms (dynamic vapour sorption, 25° C.); format: physicochemical; conditions: for Crystal form after hygroscopicity test: two cycles
Text: According to the “9103 Guideline for Hygroscopicity for Pharmaceuticals” in Part IV of the 2015 edition of the Chinese Pharmacopoeia, descriptions of hygroscopic characteristics and definitions of hygroscopic weight gain are as follows; • Deliquescent: Absorbs sufficient moisture to form a liquid; • Extremely hygroscopic: Hygroscopic weight gain is no less than 15%; • Hygroscopic: Hygroscopic weight gain is less than 15% but no less than 2%; • Slightly hygroscopic: Hygroscopic weight gain is less than 2% but no less than 0.2%; • Non-hygroscopic or nearly non-hygroscopic: Hygroscopic weight gain is less than 0.2%.
Compound of Formula (I) (Oct. 15, 2021, Nanjing) 03881 Using the Surface Measurement Systems advantage 2, at a temperature of 25° C., and starting at a humidity of 50%, the humidity range was examined from […] to 95%, with increments of 10%. The criterion for evaluation was that the mass change dM/dT at each gradient was less than 0.002%, TMAX was 360 min, and the process was cycled twice.

[3] = Influencing factor stability of crystal forms (light, high temperature, high humidity, 30 days); format: physicochemical; conditions: for change in purity under 60° C. and light: 60° C. and light (4500 Lux); for change in purity under 60° C. and light / physicochemical stability under high humidity: open; for physicochemical stability under high humidity: high humidity conditions of 75% and 92.5%; for crystal form after influencing factor experiments: light, high temperature, high humidity
Procedure: Each crystal form was spread out in an open exposure setup, and the stability of the samples under conditions of light (4500 Lux), high temperature (40° C., 60° C.), and high humidity (RH 75 RH 92.5%) was examined separately. The sampling inspection period was 30 days.

[4] = 92.5% RH, 7 days, open exposure
[5] = 92.5% RH, 30 days, open exposure
[6] = light 4500 Lux, 30 days, open exposure

SMILES: N#Cc1ccc(N2CCN(Cc3ccc(COc4cccc5c4CN([C@H]4CCC(=O)NC4=O)C5=O)cc3)CC2)c(F)c1 [CC-92480, reference compound]
Number of remaining animals/group (NCI-H929 xenograft tumor): 7/7

physical and chemical stability, long-term accelerated conditions [1]: good physical and chemical stability | Purity % 1 month ([1]; 25° C., 60% RH): 99.7% | Purity % 2 months ([1]; 25° C., 60% RH): 99.6% | Purity % 3 months ([1]; 25° C., 60% RH): 99.6% | Purity % 1 month ([1]; 40° C., 75% RH): 99.7% | Purity % 2 months ([1]; 40° C., 75% RH): 99.6% | Purity % 3 months ([1]; 40° C., 75% RH): 99.6% | Purity % 6 months ([1]; 40° C., 75% RH): 99.5% | Purity % Onset [1]: 99.7% | Hygroscopic weight change 0.0% RH-95.0% RH [2]: 2.06% | Hygroscopic weight change 20% RH-80% RH [2]: 1.03% | Hygroscopicity class (20% RH-80% RH) [2]: (slightly hygroscopic) | Crystal form after hygroscopicity test [2]: Untransformed | Color and character ([3]; 40° C., 7 days, open exposure): White solid | Purity % ([3]; 40° C., 7 days, open exposure): 99.5% | Color and character ([3]; 40° C., 14 days, open exposure): White solid | Purity % ([3]; 40° C., 14 days, open exposure, listed as Free crystal form U): 99.3% | Color and character ([3]; 40° C., 30 days, open exposure): White solid | Purity % ([3]; 40° C., 30 days, open exposure, listed as Free crystal form U): 98.8% | change in purity under 60° C. and light ([3]; 30 days): slight decrease in purity | Color and character ([3]; 60° C., 7 days, open exposure): White solid | Purity % ([3]; 60° C., 7 days, open exposure, listed as Free crystal form U): 98.9% | Color and character ([3]; 60° C., 14 days, open exposure): White solid | Purity % ([3]; 60° C., 14 days, open exposure, listed as Free crystal form U): 98.5% | Color and character ([3]; 60° C., 30 days, open exposure): White solid | Purity % ([3]; 60° C., 30 days, open exposure, listed as Free crystal form U): 97.5% | Color and character ([3]; 75% RH, 7 days, open exposure): White solid | Purity % ([3]; 75% RH, 7 days, open exposure): 99.6% | Color and character ([3]; 75% RH, 14 days, open exposure): White solid | Purity % ([3]; 75% RH, 14 days, open exposure, listed as Free crystal form U): 99.7% | Color and character ([3]; 75% RH, 30 days, open exposure): White solid | Purity % ([3]; 75% RH, 30 days, open exposure, listed as Free crystal form U): 99.6% | Color and character [3, 4]: White solid | Purity % [3, 4]: 99.7% | Color and character ([3]; 92.5% RH, 14 days, open exposure): White solid | Purity % ([3]; 92.5% RH, 14 days, open exposure, listed as Free crystal form U): 99.7% | Color and character [3, 5]: White solid | Purity % ([3]; 92.5% RH, 30 days, open exposure, listed as Free crystal form U): 99.6% | Color and character ([3]; Onset, 0 days): White solid | Purity % ([3]; Onset, 0 days, listed as Free crystal form U): 99.7% | physicochemical stability under high humidity ([3]; 30 days): good physicochemical stability | Color and character ([3]; light 4500 Lux, 7 days, open exposure): White solid | Purity % ([3]; light 4500 Lux, 7 days, open exposure, listed as Free crystal form U): 99.3% | Color and character ([3]; light 4500 Lux, 14 days, open exposure): White solid | Purity % ([3]; light 4500 Lux, 14 days, open exposure, listed as Free crystal form U): 99.3% | Color and character [3, 6]: White solid | Purity % ([3]; light 4500 Lux, 30 days, open exposure, listed as Free crystal form U): 98.8% | crystal form after influencing factor experiments ([3]; 30 days): remain unchanged
SMILES: N#Cc1ccc(N2CCC(Sc3ccc(COc4cccc5c4CN([C@H]4CCC(=O)NC4=O)C5=O)cn3)CC2)c(F)c1 [Crystal form U, (S)-4-(4-((5-(((2-(2,6-dioxopiperidin-3-yl)-1-oxoisoindolin-4-yl)oxy)methyl)pyridin-2-yl)thio)piperidin-1-yl)-3-fluorobenzonitrile]

physical and chemical stability, long-term accelerated conditions [1]: good physical and chemical stability | Purity % 1 month ([1]; 25° C., 60% RH): 97.9% | Purity % 2 months ([1]; 25° C., 60% RH): 97.8% | Purity % 3 months ([1]; 25° C., 60% RH): 97.8% | Purity % 1 month ([1]; 40° C., 75% RH): 97.8% | Purity % 2 months ([1]; 40° C., 75% RH): 97.8% | Purity % 3 months ([1]; 40° C., 75% RH): 97.8% | Purity % 6 months ([1]; 40° C., 75% RH): 97.4% | Purity % Onset [1]: 97.9% | Hygroscopic weight change 0.0% RH-95.0% RH [2]: 2.24% | Hygroscopic weight change 20% RH-80% RH [2]: 0.84% | Hygroscopicity class (20% RH-80% RH) [2]: (slightly hygroscopic) | Crystal form after hygroscopicity test [2]: Untransformed | Color and character ([3]; 40° C., 9 days, open exposure): White solid | Purity % ([3]; 40° C., 9 days, open exposure, listed as Free crystal form E): 97.4% | Color and character ([3]; 40° C., 15 days, open exposure): White solid | Purity % ([3]; 40° C., 15 days, open exposure, listed as Free crystal form E): 97.0% | Color and character ([3]; 40° C., 30 days, open exposure): White solid | Purity % ([3]; 40° C., 30 days, open exposure, listed as Free crystal form E): 96.4% | change in purity under 60° C. and light ([3]; 30 days): slight decrease in purity | Color and character ([3]; 60° C., 9 days, open exposure): White solid | Purity % ([3]; 60° C., 9 days, open exposure, listed as Free crystal form E): 96.7% | Color and character ([3]; 60° C., 15 days, open exposure): White solid | Purity % ([3]; 60° C., 15 days, open exposure, listed as Free crystal form E): 95.9% | Color and character ([3]; 60° C., 30 days, open exposure): White solid | Purity % ([3]; 60° C., 30 days, open exposure, listed as Free crystal form E): 94.6% | Color and character ([3]; 75% RH, 9 days, open exposure): White solid | Purity % ([3]; 75% RH, 9 days, open exposure, listed as Free crystal form E): 97.9% | Color and character ([3]; 75% RH, 15 days, open exposure): White solid | Purity % ([3]; 75% RH, 15 days, open exposure, listed as Free crystal form E): 97.9% | Color and character ([3]; 75% RH, 30 days, open exposure): White solid | Purity % ([3]; 75% RH, 30 days, open exposure, listed as Free crystal form E): 97.8% | Color and character ([3]; 92.5% RH, 9 days, open exposure): White solid | Purity % ([3]; 92.5% RH, 9 days, open exposure, listed as Free crystal form E): 97.9% | Color and character ([3]; 92.5% RH, 15 days, open exposure): White solid | Purity % ([3]; 92.5% RH, 15 days, open exposure, listed as Free crystal form E): 97.8% | Color and character [3, 5]: White solid | Purity % ([3]; 92.5% RH, 30 days, open exposure, listed as Free crystal form E): 97.8% | Color and character ([3]; Onset, 0 days): White solid | Purity % ([3]; Onset, 0 days, listed as Free crystal form E): 97.9% | physicochemical stability under high humidity ([3]; 30 days): good physicochemical stability | Color and character ([3]; light 4500 Lux, 9 days, open exposure): White solid | Purity % ([3]; light 4500 Lux, 9 days, open exposure, listed as Free crystal form E): 97.7% | Color and character ([3]; light 4500 Lux, 15 days, open exposure): White solid | Purity % ([3]; light 4500 Lux, 15 days, open exposure, listed as Free crystal form E): 97.4% | Color and character [3, 6]: White solid | Purity % ([3]; light 4500 Lux, 30 days, open exposure, listed as Free crystal form E): 94.9% | crystal form after influencing factor experiments ([3]; 30 days): remain unchanged
SMILES: N#Cc1ccc(N2CCC(Sc3ccc(COc4cccc5c4CN([C@H]4CCC(=O)NC4=O)C5=O)cn3)CC2)c(F)c1 [Crystal form E, (S)-4-(4-((5-(((2-(2,6-dioxopiperidin-3-yl)-1-oxoisoindolin-4-yl)oxy)methyl)pyridin-2-yl)thio)piperidin-1-yl)-3-fluorobenzonitrile]

Number of remaining animals/group (NCI-H929 xenograft tumor): 7/7
SMILES: N#Cc1ccc(N2CCC(Sc3ccc(COc4cccc5c4CN([C@H]4CCC(=O)NC4=O)C5=O)cn3)CC2)c(F)c1 [Example 1, (S)-4-(4-((5-(((2-(2,6-dioxopiperidin-3-yl)-1-oxoisoindolin-4-yl)oxy)methyl)pyridin-2-yl)thio)piperidin-1-yl)-3-fluorobenzonitrile]
influence on the body weight of mice (NCI-H929 xenograft tumor; 1 mg/kg qd, 11 days, CB-17 SCID mice): no influence
